Where two headings read alike, the source gives them in different places.

One test has as its target ASK1/MAP3K5 (Homo sapiens (Human), UniProt Q99683). Put plainly: ASK1/MAP3K5 assay by Reaction Biology Corp. The class given is biochemical. The method, then:
ASK1/MAP3K5 was used as the protein kinase and 20 μM of myelin basic protein (MBP) and 10 μM ATP were used as the substrate.

Test [1] addresses ASK1 T838 auto phosphorylation in HEK-293T cells (Homo sapiens (Human), UniProt Q99683). Put plainly: ASK1 (AUTO PHOS T838) assay, MSD format. It is filed as cell-based. The note with it: HEK 293T cells transfected with ASK1-V5 full length plasmid, compounds 1 hr at 37° C.; read-out: IC50. Here is the method: The plates were incubated at 37° C. overnight. Media on plates was changed to OPTI-MEM, serum free media and cells were transfected with 9 μg of ASK1-V5 tagged full length plasmid using Lipofectamine 2000 (Invitrogen) and the plates were incubated at 37° C. overnight. Cells were trypsinized, counted on Nexcellometer and plated into 96 well tissue culture plates with 100,000 cells/well and 200 μL media. Cells were incubated for 4 hr at 37° C. then ASK1 compounds were added using a HP 300e. Compounds were tested at 20 μM with 3 fold, 10 point dilution points then incubated for 1 hr at 37° C. A lysis buffer (Cell Signaling) was prepared with protease and phosphatase inhibitor and maintained at 4° C. until use. Media from cells was discarded and 120 μL of cold lysis buffer was added to the cells, the plate was shaken 4° C. for 1 hr. Lysate was mixed using Apricot liquid handler; aspirating up and down 16 times at high speed using 50 μL volume. […] Plates were then incubated on a plate shaker overnight at 4° C. Plates were washed 3× with MSD wash buffer and 50 μL of rabbit anti-pASK1 T838 antibody was added to the wells and incubated for 2 hr at room temperature on a plate shaker. Plates were then washed and 50 μL of goat anti-rabbit sulfa-tag (1:500 dilution) was added to wells, and incubated for 1 hr at room temperature on a plate shaker. […] Plates were immediately read on a MSD Instrument Reader where chemoluminecense signal was measured. Data was analyzed using Graph Pad or Genedata, the data was normalized and plotted, % activity versus log of compound concentration. The IC50 values were obtained from a 4 parameter fit.

Setting [2] is: 20 μM myelin basic protein (MBP), 10 μM ATP.

Chain of ASK1/MAP3K5 (Q99683 whole entry): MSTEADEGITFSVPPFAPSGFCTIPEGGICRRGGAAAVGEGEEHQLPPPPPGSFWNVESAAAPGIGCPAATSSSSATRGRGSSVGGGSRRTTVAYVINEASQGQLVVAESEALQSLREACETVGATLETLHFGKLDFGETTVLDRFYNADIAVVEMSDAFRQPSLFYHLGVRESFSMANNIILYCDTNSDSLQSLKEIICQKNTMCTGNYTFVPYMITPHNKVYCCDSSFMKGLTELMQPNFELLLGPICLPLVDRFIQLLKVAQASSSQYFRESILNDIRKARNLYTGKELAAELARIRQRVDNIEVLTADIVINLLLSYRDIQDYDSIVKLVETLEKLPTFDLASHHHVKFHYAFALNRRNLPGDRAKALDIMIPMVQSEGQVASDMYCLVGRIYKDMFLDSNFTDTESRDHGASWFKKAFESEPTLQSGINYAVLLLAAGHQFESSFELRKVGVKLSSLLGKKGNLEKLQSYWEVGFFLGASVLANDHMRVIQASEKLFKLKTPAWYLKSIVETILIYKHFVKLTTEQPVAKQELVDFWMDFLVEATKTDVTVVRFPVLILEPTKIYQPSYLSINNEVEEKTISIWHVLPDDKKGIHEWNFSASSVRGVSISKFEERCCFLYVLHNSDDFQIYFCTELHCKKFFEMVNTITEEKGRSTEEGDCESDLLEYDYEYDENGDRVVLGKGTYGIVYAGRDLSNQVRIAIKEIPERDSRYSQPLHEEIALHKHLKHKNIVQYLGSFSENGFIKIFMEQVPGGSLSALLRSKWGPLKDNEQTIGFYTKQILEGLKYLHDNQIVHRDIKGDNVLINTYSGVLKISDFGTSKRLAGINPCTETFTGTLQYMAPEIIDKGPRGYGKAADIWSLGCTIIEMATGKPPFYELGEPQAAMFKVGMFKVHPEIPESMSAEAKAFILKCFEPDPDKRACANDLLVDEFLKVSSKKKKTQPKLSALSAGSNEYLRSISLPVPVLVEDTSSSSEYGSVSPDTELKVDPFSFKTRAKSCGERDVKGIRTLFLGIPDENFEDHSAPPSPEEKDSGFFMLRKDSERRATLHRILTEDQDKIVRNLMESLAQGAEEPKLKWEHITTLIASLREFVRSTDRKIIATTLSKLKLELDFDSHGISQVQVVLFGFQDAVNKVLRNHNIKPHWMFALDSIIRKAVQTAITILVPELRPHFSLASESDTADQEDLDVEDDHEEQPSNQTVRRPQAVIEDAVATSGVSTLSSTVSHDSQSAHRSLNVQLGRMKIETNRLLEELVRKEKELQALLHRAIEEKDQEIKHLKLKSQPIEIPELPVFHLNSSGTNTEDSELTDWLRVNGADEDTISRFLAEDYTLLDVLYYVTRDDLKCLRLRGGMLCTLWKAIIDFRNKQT
Chain of ASK1 T838 auto phosphorylation in HEK-293T cells (Q99683 whole entry): as above

As usually defined, the IC50 is the point on the concentration scale where inhibition reaches its midpoint. Take `COC(C)(C)c1ccc2c(c1)C(=O)Nc1cccc(n1)-c1nncn1CCCCO2` [Example 50, 5^5-(2-Methoxypropan-2-yl)-1^4H-6-oxa-3-aza-2(2,6)-pyridina-1(3,4)-triazola-5(1,2)-benzenacyclodecaphan-4-one]: the figures for the IC50 (at ASK1/MAP3K5 (setting [2]); in test [1]) were below 100 nM and below 1000 nM, respectively.

On to `CN1CCn2ncc(-c3ccc4c(c3)C(=O)Nc3cccc(n3)-c3nncn3CCCCO4)c2C1` [Example 40, 5^5-(5-Methyl-4,5,6,7-tetrahydropyrazolo[1,5-a]pyrazin-3-yl)-1^4H-6-oxa-3-aza-2(2,6)-pyridina-1(3,4)-triazola-5(1,2)-benzenacyclodecaphan-4-one], for which the IC50 at ASK1/MAP3K5 (setting [2]) is below 100 nM; in test [1] it was below 1000 nM.

Regarding `C[C@H]1CCCOc2cc(F)c(-c3ccncc3)cc2C(=O)Nc2cccc(n2)-c2nncn21` [Example 112, (S)-5^4-Fluoro-10-methyl-5^5-(pyridin-4-yl)-1^4H-6-oxa-3-aza-2(2,6)-pyridina-1(3,4)-triazola-5(1,2)-benzenacyclodecaphan-4-one], the IC50 was below 100 nM against ASK1/MAP3K5 (setting [2]) and below 1000 nM in test [1].

`Cc1cn(-c2cc3c(cc2F)OCCC[C@H](C)n2cnnc2-c2cccc(n2)NC3=O)cn1` [Example 113, (S)-5^4−Fluoro-10-methyl-5^5-(4-methyl-1H-imidazol-1-yl)-1^4H-6-oxa-3-aza-2(2,6)-pyridina-1(3,4)-triazola-5(1,2)-benzenacyclodecaphan-4-one]: the IC50 against ASK1/MAP3K5 is below 100 nM; in test [1], below 1000 nM.

As to `O=C1Nc2cccc(n2)-c2nncn2C/C=C/CCOc2cc(F)c(Br)cc21` [Example 177, (Z)-5^5-Bromo-5^4-fluoro-1^4H-6-oxa-3-aza-2(2,6)-pyridina-1(3,4)-triazola-5(1,2)-benzenacycloundecaphan-9-en-4-one], the IC50 on ASK1/MAP3K5 (setting [2]) was below 100 nM; in test [1], 1000 to 10000 nM.

For `C[C@@H]1CCOc2cc(F)c(Br)cc2C(=O)Nc2cccc(n2)-c2nncn2C1` [Example 125, (R)-5^5-Bromo-5^4-fluoro-9-methyl-1^4H-6-oxa-3-aza-2(2,6)-pyridina-1(3,4)-triazola-5(1,2)-benzenacyclodecaphan-4-one], the IC50 on ASK1/MAP3K5 (setting [2]) lay in the range of 100 to 1000 nM; in test [1] it was 1000 to 10000 nM.

Consider `O=C1Nc2cccc(n2)-c2nncn2CCCCOc2ccc(-c3cnn(C4COC4)c3)cc21` [Example 38, 5^5-(1-(Oxetan-3-yl)-1H-pyrazol-4-yl)-1^4H-6-oxa-3-aza-2(2,6)-pyridina-1(3,4)-triazola-5(1,2)-benzenacyclodecaphan-4-one], for which the IC50 was below 100 nM at ASK1/MAP3K5 (setting [2]) and below 1000 nM in test [1].

With `O=C1Nc2cccc(n2)-c2nncn2C/C=C\CCOc2cc(F)c(Br)cc21` [Example 176, (E)-5^5-Bromo-5^4-fluoro-1^4H-6-oxa-3-aza-2(2,6)-pyridina-1(3,4)-triazola-5(1,2)-benzenacycloundecaphan-9-en-4-one], the IC50 on ASK1/MAP3K5 (setting [2]) is below 100 nM; in test [1] it was 1000 to 10000 nM.

For the compound `O=C1Nc2cccc(n2)-c2nncn2CCCCOc2ccc(-n3ccnc3)cc21` [Example 41, 5^5-(1H-Imidazol-1-yl)-1^4H-6-oxa-3-aza-2(2,6)-pyridina-1(3,4)-triazola-5(1,2)-benzenacyclodecaphan-4-one], the IC50 on ASK1/MAP3K5 (setting [2]) is below 100 nM; in test [1], below 1000 nM.

Take `C[C@@H]1CCCn2cnnc2-c2cccc(n2)NC(=O)c2cc(-c3cnn(CCN(C)C)c3)ccc2O1` [Example 147, (R)-5^5-(1-(2-(Dimethylamino)ethyl)-1H-pyrazol-4-yl)-7-methyl-1^4H-6-oxa-3-aza-2(2,6)-pyridina-1(3,4)-triazola-5(1,2)-benzenacyclodecaphan-4-one]: the IC50 against ASK1/MAP3K5 (setting [2]) was below 100 nM; in test [1], below 1000 nM.

Turning to `Cn1cc(-c2cc3c(cc2F)OCCCCn2cnnc2-c2cccc(n2)NC3=O)cn1` [Example 63, 5^4-Fluoro-5^5-(1-methyl-1H-pyrazol-4-yl)-1^4H-6-oxa-3-aza-2(2,6)-pyridina-1(3,4)-triazola-5(1,2)-benzenacyclodecaphan-4-one], the values for the IC50 (against ASK1/MAP3K5 (setting [2]); in test [1]) were below 100 nM and below 1000 nM, respectively.

In the case of `O=C1Nc2cccc(n2)-c2nncn2CCCCOc2cc(F)c(-c3cncc(C(F)(F)F)c3)cc21` [Example 58, 5^4-Fluoro-5^5-(5-(trifluoromethyl)pyridin-3-yl)-1^4H-6-oxa-3-aza-2(2,6)-pyridina-1(3,4)-triazola-5(1,2)-benzenacyclodecaphan-4-one], the IC50 is below 100 nM on ASK1/MAP3K5 (setting [2]) and below 1000 nM in test [1].

Regarding `C[C@@H]1CCCOc2ccc(F)cc2C(=O)Nc2cccc(n2)-c2nncn21` [Example 100, (R)-5^5-Fluoro-10-methyl-1^4H-6-oxa-3-aza-2(2,6)-pyridina-1(3,4)-triazola-5(1,2)-benzenacyclodecaphan-4-one], the half-inhibitory concentration (IC50) against ASK1/MAP3K5 (setting [2]) was 100 to 1000 nM; in test [1], 1000 to 10000 nM.

For `Cc1cc(-c2cc3c(cc2F)OCCCCn2cnnc2-c2cccc(n2)NC3=O)ccn1` [Example 54, 5^4-Fluoro-5^5-(2-methylpyridin-4-yl)-1^4H-6-oxa-3-aza-2(2,6)-pyridina-1(3,4)-triazola-5(1,2)-benzenacyclodecaphan-4-one], the IC50 is below 100 nM against ASK1/MAP3K5 (setting [2]) and below 1000 nM in test [1].

Turning to `CN1CCN(c2ccc3c(c2)OCCCCn2cnnc2-c2cccc(n2)NC3=O)CC1` [Example 81, 5^4-(4-Methylpiperazin-1-yl)-1^4H-6-oxa-3-aza-2(2,6)-pyridina-1(3,4)-triazola-5(1,2)-benzenacyclodecaphan-4-one], the IC50 was below 100 nM on ASK1/MAP3K5 (setting [2]) and below 1000 nM in test [1].

Take `C[C@@H]1CCCOc2cc(F)c(Br)cc2C(=O)Nc2cccc(n2)-c2nncn21` [Example 102, (R)-5^5-Bromo-5^4-fluoro-10-methyl-1^4H-6-oxa-3-aza-2(2,6)-pyridina-1(3,4)-triazola-5(1,2)-benzenacyclodecaphan-4-one]: the IC50 on ASK1/MAP3K5 (setting [2]) was 1000 to 10000 nM; in test [1] it was above 10000 nM.

For `C[C@H]1CCCn2cnnc2-c2cccc(n2)NC(=O)c2cc(N3CCOCC3)ccc2O1` [Example 142, (S)-7-Methyl-5^5-morpholino-1^4H-6-oxa-3-aza-2(2,6)-pyridina-1(3,4)-triazola-5(1,2)-benzenacyclodecaphan-4-one], the figures for the IC50 (at ASK1/MAP3K5 (setting [2]); in test [1]) were below 100 nM and below 1000 nM, respectively.

Regarding `Cc1nccn1-c1ccc2c(c1)C(=O)Nc1cccc(n1)-c1nncn1CCCCO2` [Example 43, 5^5-(2-Methyl-1H-imidazol-1-yl)-1^4H-6-oxa-3-aza-2(2,6)-pyridina-1(3,4)-triazola-5(1,2)-benzenacyclodecaphan-4-one], the IC50 at ASK1/MAP3K5 (setting [2]) was below 100 nM; in test [1] it was below 1000 nM.

In the case of `C[C@H]1CCCOc2cc(F)c(N3CC4CC(C3)O4)cc2C(=O)Nc2cccc(n2)-c2nncn21` [Example 104, (10S)-5^5-(6-Oxa-3-azabicyclo[3.1.1]heptan-3-yl)-5^4-fluoro-10-methyl-1^4H-6-oxa-3-aza-2(2,6)-pyridina-1(3,4)-triazola-5(1,2)-benzenacyclodecaphan-4-one], the half-inhibitory concentration (IC50) was below 100 nM against ASK1/MAP3K5 (setting [2]) and below 1000 nM in test [1].

For `C[C@H]1CCCOc2cc(F)c(C3=CCN(C)CC3)cc2C(=O)Nc2cccc(n2)-c2nncn21` [Example 106, (S)-5^4-Fluoro-10-methyl-5^5-(1-methyl-1,2,3,6-tetrahydropyridin-4-yl)-1^4H-6-oxa-3-aza-2(2,6)-pyridina-1(3,4)-triazola-5(1,2)-benzenacyclodecaphan-4-one], the values for the concentration for half-maximal inhibition (IC50) (against ASK1/MAP3K5 (setting [2]); in test [1]) were below 100 nM and below 1000 nM, respectively.

(Values after patent publication US11168095B2, “ASK1 inhibiting agents” (BIOGEN MA INC., priority 2017, dated 2021).)
